The source of these data is patent US12274775B2, “Fatty acid esters as anti-Malassezia agents” (SYMRISE AG, priority 2019, dated 2025).

Holding throughout (assay): Agar dilution test on mDixon agar, minimal inhibitory concentration (MIC)
Holding throughout (assay type): cell-based
A general note: Agar dilution tests growth on a series of plates holding different concentrations.

In assay [1] the test system is M. globosa. The note with it: agar dilution, pH 5.5, 32° C., up to 14 days; for MIC: Malassezia globosa, read-out: Minimal inhibitory concentration (MIC). Here is the method: (§1) The fatty acid esters and their mixtures were tested for growth inhibition against Malassezia. The following reference strains were included:
(§2) Tests were performed on solid media using agar dilution tests. Stock solutions of test substances were prepared in mDixon-Agar (cf. Table 2). Lower test concentrations were obtained by diluting stock solutions with fresh agar.
(§3) Preparation of liquid agar was carried out in temperated water bath. Required amounts of test substances were weighed in 130 ml of Dixon Agar and mixed with fresh Dixon-Agar to reach desired concentrations of test substances. Agar solutions with test substances were then poured into 24 well-plates. The pH value in all assays was maintained at 5.5. Preparation of test substances was done on weight per volume base. All results are expressed in parts per million (1 ppm=0.0001%).
(§4) Briefly, Malassezia strains were cultivated on selective agar for pathogenic fungi (Merck) and overlaid with a thin layer of cold-sterilized olive oil. […] Incubation was carried out at 32° C. over a maximal duration of 14 days with regular inspection and documentation of growth status. Minimal inhibitory concentrations (MICs) were determined as the lowest concentrations of test compound without visible growth. Each experiment was repeated to confirm results.

For assay [2], the system named is M. restricta. The settings on record: M. restricta CBS 7877, agar dilution, pH 5.5, 32° C., up to 14 days; for MIC: 336 h, read-out: Minimal inhibitory concentration (MIC). Here is the method: as §1, §2, §3, §4
Assay [3] concerns M. sympodialis. The note with it: up to 14 days; for MIC: 336 h, read-out: Minimal inhibitory concentration (MIC). Here is the method:
as §1, §2, §3, §4

Assay [4] relates to M. furfur. The note with it: agar dilution, pH 5.5, 32° C., up to 14 days; for MIC: Malassezia furfur, read-out: Minimal inhibitory concentration (MIC). As for the experimental part:
as §1, §2, §3, §4

Assay [5] has as its system M. pachydermatis. The settings on record: agar dilution, pH 5.5, 32° C., up to 14 days; for MIC: Malassezia pachydermatis, read-out: Minimal inhibitory concentration (MIC). Here is the method: as §1, §2, §3, §4
Setting [6] is: CBS7705, 336 h, M. globosa CBS 7705.
[7] abbreviates: CBS7966, 336 h, M. globosa CBS 7966.
Where [8] appears, read: pH 5.5, M. sympodialis ATCC 42132, pH 5.5, 32° C.
The mark [9] stands for this setting: pH 5.5, M. sympodialis CBS 7222, pH 5.5, 32° C.
Where [10] appears, read: pH 5.5, M. sympodialis CBS 7979, pH 5.5, 32° C.
Where [11] appears, read: pH 5.5, M. sympodialis DSM 6171, pH 5.5, 32° C.
[12] abbreviates: CBS1878, 336 h, M. furfur CBS 1878.
Setting [13] is: CBS7019, 336 h, M. furfur CBS 7019.
The mark [14] stands for this setting: CBS1879, 336 h, M. pachydermatis CBS 1879.
[15] abbreviates: M. sympodialis ATCC 42132, pH 5.5, 32° C.
[16] abbreviates: M. sympodialis CBS 7222, pH 5.5, 32° C.
Where [17] appears, read: M. sympodialis CBS 7979, pH 5.5, 32° C.
Where [18] appears, read: M. sympodialis DSM 6171, pH 5.5, 32° C.

In brackets after ≈: the same amount, converted by molar mass. Read-outs that look alike come from different tables or passages of the source. A value given as a limit tells only on which side of the number the result lay.

Regarding `CCCCC(O)CO` (stereo not drawn) [1,2-Hexandiol], the MIC turned out to be 5000 µg/mL (≈ 42.3 mM) in assay [1] (336 h, M. globosa PM1); 10000 µg/mL (≈ 84.6 mM) in assay [1] (setting [6]); 5000 µg/mL (≈ 42.3 mM) in assay [1] (setting [7]); 5000 µg/mL (≈ 42.3 mM) in assay [2]; 10000 µg/mL (≈ 84.6 mM) in assay [3] (setting [8]); 10000 µg/mL (≈ 84.6 mM) in assay [3] (setting [9]). For the same molecule, the MIC in assay [3] (setting [10]) and in assay [3] (setting [11]) was 10000 µg/mL (≈ 84.6 mM) throughout.
`C=CCCCCCCCCC(=O)OCC(O)CO` (stereo not drawn) [Glyceryl monoundecylenoate]: the MIC in assay [4] (setting [12]) is 8000 µg/mL (≈ 31 mM); in assay [4] (setting [13]), 8000 µg/mL (≈ 31 mM); in assay [1] (336 h, M. globosa PM1), 2000 µg/mL (≈ 7.74 mM); in assay [1] (setting [6]), 1000 µg/mL (≈ 3.87 mM); in assay [1] (setting [7]) it was 2000 µg/mL (≈ 7.74 mM); in assay [5] (336 h, M. pachydermatis 1892) it was 4000 µg/mL (≈ 15.5 mM). Besides, the MIC in assay [5] (setting [14]) was found to be 8000 µg/mL (≈ 31 mM); in assay [2], 1000 µg/mL (≈ 3.87 mM); in assay [3] (setting [8]), 500 µg/mL (≈ 1.94 mM); in assay [3] (setting [9]), 500 µg/mL (≈ 1.94 mM); in assay [3] (setting [10]), 500 µg/mL (≈ 1.94 mM); in assay [3] (setting [11]), 200 µg/mL (≈ 0.774 mM).
For the molecule PEG-9-undecylenoate, the “Minimal inhibitory concentration (MIC)” value in assay [4] (M. furfur CBS 1878) is reported as 20000 ppm; in assay [4] (M. furfur CBS 7019), more than 20000 ppm; in assay [1] (M. globosa CBS 7966), 10000 ppm; in assay [1] (M. globosa PM1), 8000 ppm; in assay [5] (M. pachydermatis 1892), 8000 ppm; in assay [5] (M. pachydermatis CBS 1879) it was 8000 ppm. The “Minimal inhibitory concentration (MIC)” value in assay [2] is listed as 4000 ppm.
`CCCCCCCC(=O)OCC(O)CO` (stereo not drawn) [Glyceryl monocaprylate]: the MIC in assay [4] (setting [12]) was 4000 µg/mL (≈ 18.3 mM); in assay [4] (setting [13]) it was 4000 µg/mL (≈ 18.3 mM); in assay [1] (336 h, M. globosa PM1) it was 500 to 1000 µg/mL (≈ 2.29 to 4.58 mM); in assay [1] (setting [6]) it was 1000 µg/mL (≈ 4.58 mM); in assay [1] (setting [7]), 1000 µg/mL (≈ 4.58 mM); in assay [5] (336 h, M. pachydermatis 1892) it was 500 µg/mL (≈ 2.29 mM). Moreover, the MIC amounted to 330 µg/mL (≈ 1.51 mM) in assay [5] (setting [14]); 330 µg/mL (≈ 1.51 mM) in assay [2]; 1000 µg/mL (≈ 4.58 mM) in assay [3] (setting [8]); 1000 µg/mL (≈ 4.58 mM) in assay [3] (setting [9]); 1000 µg/mL (≈ 4.58 mM) in assay [3] (setting [10]); 2000 µg/mL (≈ 9.16 mM) in assay [3] (setting [11]).
Regarding `OCCCO` [1,3-Propandiol], the “Minimal inhibitory concentration (MIC)” value amounted to 80000 ppm in assay [1] (M. globosa CBS 7705); 40000 ppm in assay [1] (M. globosa CBS 7966); 33000 ppm in assay [1] (M. globosa PM1); 33000 ppm in assay [2]; 40000 ppm in assay [3] (setting [15]); 33000 ppm in assay [3] (setting [16]). Besides, the “Minimal inhibitory concentration (MIC)” value in assay [3] (setting [17]) and in assay [3] (setting [18]) was 80000 ppm each time.
On to `CCCC(O)CO` (stereo not drawn) [1,2-Pentandiol], for which the MIC in assay [1] (336 h, M. globosa PM1) was determined as 10000 µg/mL (≈ 96 mM); in assay [1] (setting [6]) it was 20000 µg/mL (≈ 192 mM); in assay [1] (setting [7]), 10000 µg/mL (≈ 96 mM); in assay [2] it was 10000 µg/mL (≈ 96 mM); in assay [3] (setting [8]) it was 20000 µg/mL (≈ 192 mM); in assay [3] (setting [9]), 20000 µg/mL (≈ 192 mM). For the same molecule, the MIC in assay [3] (setting [10]) and in assay [3] (setting [11]) was 20000 µg/mL (≈ 192 mM) in each case.
Take PEG9-caprylate: the “Minimal inhibitory concentration (MIC)” value in assay [4] (M. furfur CBS 1878) is listed as 20000 ppm; in assay [4] (M. furfur CBS 7019) it was 10000 ppm; in assay [1] (M. globosa CBS 7966), 2000 ppm; in assay [1] (M. globosa PM1), 2000 ppm; in assay [5] (M. pachydermatis 1892) it was 4000 ppm; in assay [5] (M. pachydermatis CBS 1879), 2000 ppm. For the same molecule, the “Minimal inhibitory concentration (MIC)” value in assay [2] amounted to 2000 ppm; in assay [3] (setting [15]), 10000 ppm; in assay [3] (setting [16]) it was 10000 ppm; in assay [3] (setting [17]) it was 8000 ppm; in assay [3] (setting [18]), 8000 ppm.
